From patent publication US5304548A, “Bivalent ligands effective for blocking ACAT enzyme for lowering plasma triglycerides and for elevating HDL cholesterol” (The Upjohn Company, priority 1992, dated 1994)
In brackets after ≈: the same amount, converted by molar mass. Entries after “also recorded” stand apart in the source; their conditions may differ.

Columns and labels:
[1] = tested on: acyl-CoA: cholesterol O-acyltransferase enzyme (ACAT); experiment: Inhibition of cellular ACAT (esterification of 3H-cholesterol taken up by cells); settings: for IC50: ACAT inhibition; for ACAT inhibition, result in words: comparison bivalent vs. monomeric / by dose
[2] = Plasma triglycerides in rats or rabbits whose triglycerides are within normal limits; assay type: in vivo; settings: rats or rabbits with triglycerides within normal limits
[3] = Hypercholesterolemic model, obese female Zucker rats (fa/fa), dose response of plasma lipids after 1 week; assay type: in vivo, Zucker rat; settings: genetically obese Zucker rats
Procedure: Obese female Zucker rats (fa/fa) weighing 500-600 g were used in the study. These animals are endogenously hypertriglyceridemic and hypercholesterolemic as was described above. Basal plasma triglycerides, cholesterol, and HDL-C levels were determined in individual rats (Ektachem DT 60 Analyzer) which were then randomly assigned to four Compound Ia (Ia) treatment groups (5 mg/kg, n=4; 10 mg/kg, n=4; 20 mg/kg, n=4; 30 mg/kg, n=3). The animals were all individually housed and received Purina Chow pellets (#5002) containing IA at levels calculated to provide the daily doses of Ia described above. After 1 week, all rats were bled by cardiac puncture for determination of plasma triglycerides, cholesterol, and HDL-C. An additional group of rats (n=3) receiving chow alone was run in parallel with the treatment groups as an additional control for the experiment. Each animal acted as its own control since plasma lipid parameters were measured in each animal immediately prior to dosing. The data for triglycerides, cholesterol, and HDL-C were adjusted for this pre-dosing value using a percent change calculation: ((Post-Pre)/Pre)100 . For all 3 measurements, a simple linear model was fit to the percent change value vs log 10 (dose). The logarithmic transformation was used to linearalize the relationship.

[4] = Antiatherosclerotic activity, Netherland dwarf rabbits on cholesterol-containing atherogenic diet, twelve weeks; assay type: in vivo, Netherland dwarf rabbit; settings: 50 mg/kg/day
Procedure: In another experiment, ACAT inhibitor compound Ia (Table 2) was administered for twelve weeks at 50 mg/kg/day to Netherland dwarf rabbits that were feed a cholesterol-containing atherogenic diet. During the twelve week period serum cholesterol, triglycerides, and carnitine were monitored. At the end of the study the aortas from the drug treated group and a non-drug treated group were examined for atherosclerosis development.

[5] = Antiatherosclerotic activity, SEA quail on high cholesterol diet, oral compound, arteries analysed after eight weeks; assay type: in vivo, SEA Japanese quail; settings: statistically significant
Procedure: For example, five to six week old, male, SEA quails were placed on a high cholesterol diet with one group orally receiving the subject ACAT inhibitor compound Ia (Table 2). After eight weeks the arteries were removed, cleaned and homogenized. Total cholesterol, free cholesterol and triglycerides were measured.

[6] = Hypertriglyceridemia model, female Zucker rats (fafa), compound in chow with cross-over; assay type: in vivo, Zucker rat
Procedure: Female Zucker rats (fafa, 378±3) were maintained on a pelleted chow diet (Purina Chow #5001) or the chow diet which contained Compound Ia (Ia) at a level calculated to deliver 50 mg/kg/day. The Ia containing pellets were prepared from #5001 meal into which the drug had been pre-mixed and subsequently pelletized. […] The plasma was obtained from heparinized blood taken by cardiac puncture and the lipids were measured using an Ektachem DT60 analyzer (Eastman Kodak).

| Compound | % ACAT Inhibition ([1]; 5 μg/ml) | % ACAT Inhibition ([1]; 10 μg/ml) | % ACAT Inhibition ([1]; 15 μg/ml) | other results |
| --- | --- | --- | --- | --- |
| COc1c2c(c(OC)c3occc13)OC(=CN1CCC(CCCC3CCN(C=C4Oc5c(c(OC)c6ccoc6c5OC)C4=O)CC3)CC1)C2=O [Compound III] | 18% | 29% | 52% | – |
| COc1c2occc2c(OC)c2c(=O)nc(N3CCC(CCCC4CCN(c5nc(=O)c6c(OC)c7ccoc7c(OC)c6o5)CC4)CC3)oc12 [Compound II] | 60% | 89% | 97% | IC50 [1]: 1.8 mg/L (≈ 2.57 µM) |
| COc1c2c(c(OC)c3occc13)OC(=CNCCCCCCCCNC=C1Oc3c(c(OC)c4ccoc4c3OC)C1=O)C2=O [Compound IX] | 63% | 52% | 51% | ACAT inhibition, result in words [1]: excellent inhibition over its monomeric counterparts; also recorded: surprisingly good inhibitory activity even at the 5 μg/ml dose |
| COc1c2occc2c(OC)c2c(=O)cc(CN3CCC(CCCC4CCN(Cc5cc(=O)c6c(OC)c7ccoc7c(OC)c6o5)CC4)CC3)oc12 [Compound I] | 68% | 84% | 91% | IC50 [1]: 4.2 mg/L (≈ 5.78 µM); ACAT inhibition, result in words [1]: enhanced potency |
| COc1c2occc2c(OC)c2c(=O)cc(CN3CCC(CCC4CCN(Cc5cc(=O)c6c(OC)c7ccoc7c(OC)c6o5)CC4)CC3)oc12 [Compound Ia] | 87% | 84% | 75% | effect on plasma triglyceride levels [2]: very little effect on plasma triglyceride levels; plasma HDL cholesterol, result in words [3]: dose dependent elevation of plasma HDL cholesterol; also recorded: significant linear positive relationship between the % change HDL-C and log 10 (dose); also recorded: ability to elevate HDL-cholesterol; plasma total cholesterol, result in words [3]: without significant changes in plasma total cholesterol; also recorded: hypotriglyceridemic effect can be dissociated from a tendency to elevate plasma cholesterol; plasma triglycerides, result in words [3]: dose-dependent reduction in plasma triglycerides; also recorded: significant negative relationship between % change in plasma triglycerides and log 10 (dose); also recorded: confirmed the triglyceride lowering activity; mean serum cholesterol level ([4]; control exceeded 2200 mg/dl): 271 mg/dL; atheromatous lesion development ([4]; extensive in controls): negligible atheromatous lesion development; development of hypercholesterolemia ([4]; vs. control): less extensive development of hypercholesterolemia; IC50 [1]: 0.8 mg/L (≈ 1.12 µM); reduction in the accumulation of esterified cholesterol in the arteries [5]: thirty; mean plasma cholesterol ([6]; Ia administration, 50 mg/kg/day, from 126±18): 174 ± 8 mg/dL; plasma cholesterol, cross-over ([6]; controls crossed over to Ia at day 27, from 118±24, three of four animals increased): 164 ± 22 mg/dL; plasma triglycerides, cross-over ([6]; controls crossed over to Ia, 5 day cross-over period, from 2872±742): 656 ± 242 mg/dL; plasma cholesterol after withdrawal ([6]; drug withdrawn day 16): restored essentially to pretreatment levels; plasma triglycerides after withdrawal ([6]; drug withdrawn on day 16, within 1 week): essentially returned to pretreatment levels within 1 week; plasma triglycerides, lowest level reached ([6]; from levels as high as 3000 mg/dl): less than 300 mg/dl; plasma triglycerides ([6]; within 8 days of addition to diet, 50 mg/kg/day, from group mean 2431±446): 260 ± 52 mg/dL |
| COc1c2occc2c(OC)c2c(=O)cc(CN3CCN(CCN4CCN(Cc5cc(=O)c6c(OC)c7ccoc7c(OC)c6o5)CC4)CC3)oc12 [Compound Ib] | 5% | 6% | 2% | – |
| COc1c2occc2c(OC)c2c(=O)cc(CN3CCN(CC(O)CN4CCN(Cc5cc(=O)c6c(OC)c7ccoc7c(OC)c6o5)CC4)CC3)oc12 [Compound Ic] | 7% | 13% | 15% | – |
| COc1c2occc2c(OC)c2c(=O)cc(CN3CCC(C4CCN(Cc5cc(=O)c6c(OC)c7ccoc7c(OC)c6o5)CC4)CC3)oc12 [Compound Id] | 0% | 0% | 0% | – |
| COc1c2c(c(OC)c3c(=O)cc(CN4CCC(CCC5CCN(Cc6cc(=O)c7c(OC)c8c(c(OC)c7o6)OCC8)CC5)CC4)oc13)CCO2 [Compound V, 7,7'-(1,2-Ethanediylbis(4,1-piperidinediylmethylene))bis-2,3-dihydro-4,9-dimethoxy-5H-furo(3.2-g)(1)benzopyran-5-one] | 63% | 73% | 74% | IC50 [1]: 3.0 mg/L (≈ 4.19 µM) |
| COc1c2c(c(OC)c3occc13)OC(=CNCCCN1CCN(CCCNC=C3Oc4c(c(OC)c5ccoc5c4OC)C3=O)CC1)C2=O [Compound VIII] | 32% | 41% | 49% | – |
| COc1c2c(c(OC)c3occc13)OC(=CN1CCC(CCCC3CCN(C=C4Oc5c(c(OC)c6ccoc6c5OC)C4=O)CC3)CC1)C2=O [Compound VII] | – | – | – | ACAT inhibition, result in words [1]: active at the high dose tested (15 μg/ml) |
| COc1c2oc([Si](C)(C)C)cc2c(OC)c2c(=O)cc(CN3CCC(CCC4CCN(Cc5cc(=O)c6c(OC)c7cc([Si](C)(C)C)oc7c(OC)c6o5)CC4)CC3)oc12 [Compound VI] | 18% | 29% | 52% | – |
| COc1c2occc2c(OC)c2c(=O)cc(CN3CCC(C)CC3)oc12 [IV, reference compound] | 10% | 27% | 39% | ACAT inhibition, result in words [1]: reduced percent ACAT inhibition |
| COc1c2c(c(OC)c3occc13)OC(=CNC1CCCCC1)C2=O [reference compound] | 47% | 55% | 65% | – |
| COc1c2c(c(OC)c3occc13)OC(=CNCc1ccccc1)C2=O [reference compound] | 50% | 66% | 78% | – |
